One compound from patent publication US9463174B2, “Pharmaceutical composition for the treatment of type-1 diabetes” (priority 2008, dated 2016) can be followed below.

“Also recorded” adds a separate entry of the source.

The test system of data set [1] is MLDS CD1 mice. In words: Prevention of multiple-low-dose-streptozotocin (MLDS) induced diabetes by daily GABA injection. Format: in vivo. How it is done: As shown in the FIG. 1, the diabetes induction by multiple-low-dose-streptozotocin (i.p. 40 mg/kg for four consecutive days, MLDS) in mice can be prevented by daily injection of GABA. The MLSD murine model is commonly used for study of T1D (Rossini A A et al, 1978 Nature. 276(5684):182-4; Harlan D M et al, 1995 Diabetes 44(7):816-23) in which the beta-cells are destroyed by the toxic streptozotocin that leads to insulin insufficiency. To certain extent, T-cell mediated beta-cell inflammation (insulitis) is found in the multiple-low-dose streptozotocin induced diabetic hyperglycemia. However, insulitis may not be necessary occurred in the hyperglycemic mice induced by one injection of streptozotocin of high dose (i.e. 200-250 mg/kg), as in the latter case the beta-cell are rapidly destroyed. […] GABA has no effect on the glucose tolerance in normal mice as determined by intraperitoneal glucose tolerance test (IPGTT) 7 days before STZ injection.
The techniques used for the in vivo and in vitro studies in this embodiment of the disclosure are also described. CD1 mice (Charles River Laboratories, St Constant, Canada), NOD mice and transgenic TCR NOD mice (Jackson Laboratory, USA) were housed under a controlled temperature and a 12-h light/12-h dark cycle in the St. Michael's Hospital Animal facility with free access to food (normal rodent chow) and water, except where noted. All procedures were conducted according to protocols and guidelines approved by the Canadian Council of Animal Care and the St. Michael's Hospital Animal Care committee. Mice were treated with GABA by daily intraperitoneal (i.p.) injection of 20·g GABA per mouse to reach ˜200 μM circulation concentration and PBS as control. The daily treatment is continuously conducted during 60-day experimental period. One wk after the GABA and PBS treatment, diabetes was induced in both groups by i.p.-injection of low-dose streptozotocin (STZ, Sigma Chemical Co., St. Louis, Mo. 40 mg/kg body weight) for 5 consecutive days. The development of hyperglycemia was monitored by measuring blood glucose from the tail vein every third day following STZ injections using an Ascensia ELITE® XL glucose meter. For some studies, overtly diabetic mice induced by STZ and without GABA treatment were divided into two groups: one group started receiving daily i.p. injection of 20·g GABA whereas other group received only PBS. The treatment was continued for 75 days. The handling of the NOD mice were similar to those CD1 mice except the STZ injection. The NOD mice have a susceptibility to spontaneous development of autoimmune T1D. The TCR transgenic 8.3-NOD mice have a markedly accelerated disease (J. Vergdaguer et al, 1997 J Exp Med. 186(10):1663-76).
Groups of mice were subject to a glucose tolerance test (IPGTT) before treatment (day 0), one, three, and five weeks after administration and the day prior termination. For IPGTT, mice were fasted overnight for 15 h, and were given 1.5 g glucose/kg body weight via i.p.-injection. Blood was drawn from the tail vein and blood glucose was measured at 0, 10, 20, 30, 60, 90, and 120 min after glucose administration.
Insulin tolerance test (ITT) was performed in non-fasting mice by i.p.-injection of 2.5 unit insulin/kg body weight. Blood was drawn from the tail vein and blood glucose levels were measured at 0, 20, 30, 40, 60, 90, and 120 min after insulin administration. Glucagon tolerance test (GTT) was performed in 15 hrs fasted mice: glucagon were i.p.-injected (50 ng/g body weight) and blood was drawn from the tail vein and blood glucose levels were measured at 0, 10, 20, 30, 60, 90, and 120 min after glucagon administration.
Mice were housed in metabolic cages prior to initiation of GABA and PBS treatment and before termination of experiments. Food intake, water consumption and urine output were measured. To determine the fat distribution, three intra-abdominal fat pads retroperitoneal, mesenteric and epididymal were dissected and weighed. […]

In data set [2] the test system is INS-1 cells. In words: Cell proliferation assay by 3H-thymidine incorporation. Format: cell-based. How it is done:
INS-1 cells were grown to 80-85% confluence in 12-well plates, serum-starved for 24 h and then treated with GABA at various concentrations in the presence of 3 mmol/l glucose. Some cells were also pre-incubated with GABA receptor antagonist for 20 h prior before the treatment. DNA synthesis was measured by incubating cells with 37 kBq/ml 3H-methylthymidine (specific activity: 3000 GBq/mmol; Amersham Pharmacia Biotech) for 4 h. Cells were then washed twice in ice-cold PBS and incubated for 30 min in 1 ml of 5% trichloroacetic acid on ice to precipitate the DNA. The liquid layer was removed by aspiration and 250 μl of 0.1 mol/l sodium hydroxide was added to the cells for 30 min at room temperature. During this time the container was gently shaken. The solubilised material was then transferred to 5 ml of scintillant, and radioactive counts were determined by liquid scintillation counting.
A general note: Dividing cells build labelled thymidine or BrdU into new DNA.

Where [3] appears, read: GABA treated vs non-treated MLDS-mice.
[4] abbreviates: GABA treated vs untreated MLDS-mice.
[5] abbreviates: GABA vs non-GABA treated MLDS-mice.
Setting [6] is: pancreatic immunohistochemistry, vs non-treated MLDS-mice.

As to `NCCCC(=O)O` [GABA, gamma-aminobutyric acid], in data set [1] (7 days before STZ injection), the “glucose tolerance in normal mice (IPGTT)” value is recorded as “no effect”. Also, in data set [1] (setting [3]), the “glucose tolerance (IPGTT)” value is “significant improved glucose tolerance; also recorded: maintained close to normal glucose tolerance” and the “glucose tolerance, area under curve” value is listed as “significantly improved”. Further, in data set [1] (setting [4]), the circulating insulin entry is reported as “significantly elevated circulating insulin levels”, the “ratio of insulin to glucagon levels” value was “increased ratio of insulin to glucagon levels; also recorded: significantly increased insulin/glucagon ratio” and the serum glucagon levels result was “reduced serum glucagon levels; also recorded: significantly reduced glucagon levels”. Moreover, in data set [1] (setting [5]), the “circulating IL-12” value is on record as “significantly reduced”, the “circulating INF-gamma” value is recorded as “significantly reduced”, the “circulating level of TNF-alpha” value was “significantly decreased” and the “circulating level of pro-inflammatory IL-1 (IL-1-beta)” value is “significantly decreased”. Further, in data set [1] (setting [5]), the “serum level of IL-6” value is listed as “not different” and the “serum level of Th2 cytokine IL-10” value is on record as “not different”. The “diabetic symptoms such as polydipsia and polyuria” value in data set [1] (MLDS mice, metabolic studies) is recorded as “significantly improved diabetic symptoms”. The diabetic sickness entry in data set [1] (MLDS mice, throughout the feeding course) was “not found in any mouse”. For the same compound, in data set [1] (MLDS-mice), the “glucagon tolerance (glucagon tolerance test)” value was “significantly improved glucagon tolerance; also recorded: largely improved”; the “improvement of glucagon intolerance, area under curve” value is given as “statistically significant”; the “insulin sensitivity (insulin tolerance test)” value was “does not alter the insulin sensitivity; also recorded: did not alter the insulin sensitivity”; the “insulitis scored by HE staining for infiltrated lymphocytes in the islets” value is reported as “significant reduction of insulitis”. In data set [1] (after 7-day MLDS injection, control mice 8 of total 8), the “number of GABA treated STZ mice that developed overt hyperglycemia” value is given as “one”. For the same compound, the “development of diabetic hyperglycemia (blood glucose)” value in data set [1] (daily i.p. GABA 20·g/mouse, MLDS CD1 mice, vs untreated) is “prevents development of diabetic hyperglycemia; also recorded: remarkably prevented development of hyperglycemia”. In data set [1] (setting [6]), the alpha-cell mass entry is given as “significantly reduced alpha-cell mass” and the beta-cell mass result was “significantly reserved the beta-cell mass”. Also, the “3H-thymidine incorporation into INS-1 cells” value in data set [2] (GABA 100 mM, time-dependent manner) is “increased the ^3H-thymidine incorporation”. For the same compound, the “INS-1 cell proliferation (3H-thymidine incorporation)” value in data set [2] (various concentrations, 3 mmol/l glucose) was “dose-dependently increased INS-1 cell proliferation”.
